From patent US8859615B2, “Compounds, compositions and methods for reducing toxicity and treating or preventing diseases” (priority 2008, dated 2014)
pIC50: −log10 of the molar value. Read-outs that look alike come from different tables or passages of the source.

Experiments:
CD-1 mouse splenocytes = experiment: Splenocyte stimulation: [3H]dThd incorporation into DNA (Table 7, FIGS. 10, 11); type: cell-based; settings: for proliferative activity life-span of normal mouse splenocytes in vitro: FIGS. 10 and 11; for stimulation of DNA synthesis ([3H] thymidine uptake) by mouse splenocytes / Incorporation of [3H]dThd into Mouse Splenocyte DNA (cpm): Table 7; for Incorporation of [3H]dThd into Mouse Splenocyte DNA (cpm): control 224 ± 28
From the text: FIG. 10 show controls and the effects of different concentrations of compounds of the invention, at different time points, on the proliferation of cultured mouse splenocytes as measured by DNA synthesis through incorporation of radiolabeled thymidine into the cells' DNA.
FIG. 11 show controls and the effects of different concentrations of compounds of the invention, at different time points, on the proliferation of cultured mouse splenocytes as measured by DNA synthesis through incorporation of radiolabeled thymidine into the DNA.
Splenocytes were prepared from CD mice as a single cell suspension, and treated with red blood cell (RBC) lysis buffer (as described at http://www.ebioscience.com/ebioscience/specs/antibody—00/00-4333.htm) to remove RBCs. In a typical experiment, splenocyte stimulations by […] (PHA), panaxytriol (PXT) or Compound D were measured by using tritium-labeled thymidine, ^3H-dThd, as a tracer for DNA synthesis. DNA synthesis correlates with cell proliferation. The incubation mixture consisted of splenocyte suspension in RPMI 1640 medium (1.56×10^6 cells in 198.5 μl)+3 μg of PHA in 1 μl+ the test compound at various concentrations in 0.5 μl in dimethyl sulfoxide (DMSO), to a final concentration of 200 μl per microplate well. DMSO alone was used in place of the compound in DMSO as a control. The incubation was carried out in 5% CO2-humidified atmosphere at 37° C. for a designated time [e.g., 24 hr, 48 hr, 72 hr, 96 hr]. At the end of the incubation period, ^3H-dThd 1 μCi in 1 μl was added for an additional 6 hr incubation. The reaction was stopped by adding one volume of 20% trichloroacetic acid (TCA), homogenized at 3° C. and washed with 20% TCA. The precipitate was heat extracted (90°) with 10% TCA for 15 minutes to obtain the DNA fraction, which has the radiolabel incorporated, in the supernatant. The supernatant was added to a 7-fold volume of Liquicint for scintillation counting, which was accomplished with a Beckman LS 6000 IC spectrometer from Beckman Coulter Co. The incorporation of [^3H]dThd into DNA of splenocytes were measured as described above or previously (Chou et al. Phytotherap. Res. 3: 237-242, 1989). The results are depicted in FIGS. 11 and 12.
For the cell-counting assays, the cells were washed with RPMI 1640 medium and followed by centrifugation. The cell number was counted with a hemocytometer. Splenocyte suspensions (0.4×10^6 cells in 0.2 ml) in flat bottom 96-well plates were incubated with [^3H]dThd (1 μCi) for 24-hrs in the absence or presence of […] (PHA, 0.1 μg/0.2 ml) or panaxytriol (0.03-1 μM). Studies indicate that maximal stimulation occurred at 48 hrs or 72 hrs. The procedure in Table 7 was used to test the splenocytes used in the assays described herein to test the compounds of the invention, shown by PHA stimulation of DNA synthesis. […] Splenocytes from this culture were used in the assays in FIGS. 11 and 12 and the corresponding Examples.

[1] = tested on: CCRF-CEM subline resistant to TAXOL; experiment: In vitro cytotoxicity against TAXOL-resistant CCRF-CEM subline; type: cell-based, human; settings: for IC50 / pIC50: Homo sapiens, CCRF-CEM; for IC50: read-out: CCRF-CEM/TAXOL (IC50 in μM); for pIC50: read-out: IC50 CCRF-CEM/TAXOL; for fold of cross-resistance (CCRF-CEM/TAXOL vs parent cell line): Table 3D, given as x or -fold
leukemic CCRF CEM cells = experiment: Precursor incorporation into DNA, RNA and protein (Table 9); type: cell-based, human
Method: The radioactive tracer studies were carried out as described by Chou T C, et al. Cancer Res. 43: 3074-3079, 1983.

human PBMC lymphocytes = experiment: DNA synthesis ([3H]thymidine incorporation) in human PBMC lymphocytes (FIG. 8); type: cell-based; settings: for maximal human lymphocyte stimulation concentration: at 120 hrs, FIG. 8B, C, D
From the text: FIG. 8 show the effects of PHA and different concentrations of compounds of the invention, at different time points, on the proliferation of a culture of human lymphocytes as measured by DNA synthesis through incorporation of radiolabeled thymidine into the DNA.
The main principle and method of experiments for human PBMC lymphocytes and for mouse splenocytes stimulations were the same, since both measure immunological cell stimulation by PHA, PXT and compounds of the invention. Both the lymphocyte and the splenocyte assays measure the ^3H-dThd tracer as an indication of DNA synthesis. For PBMC lymphocytes (FIGS. 9A-9G), the experimental methods are those for splenocytes disclosed in Example 24 (FIGS. 11A-11F; FIGS. 12A-12E), except 0.282×10^6 PBMC lymphocyte cells in 198.5 μl was used, and the experimental incubation time was extended to 120 hr.
Briefly, to generate the data in Tables 8A and 8B, the compounds were tested in a [^3H] thymidine uptake experiment using PBMC human lymphocytes obtained from the New York Blood Center. PBMC human lymphocytes were exposed to compounds at 0.03, 0.1, 0.3, and 1.0 μM for 24 hours, and examined for increased [^3H] thymidine uptake. Human lymphocytes were also exposed to compounds for an extended time, e.g., 48 hrs and 72 hrs, instead of 24 hrs, in the [^3H] thymidine uptake assay, and examined to determine the extent of increased [^3H] thymidine uptake to determine if extended exposure will further increase the immune-enhancing effects of the compounds. Increased [^3H] thymidine uptake is interpreted as increased DNA synthesis, which indicates cell growth and division. In the case of immune system cells, this should result in an immune-enhancing effect. The compounds are compared by their IC50 values and/or their effect on [^3H] thymidine uptake at a given concentration and/or time point.

[2] = Homo sapiens, CCRF-CEM, 100 μM, 60 min, ↓ (inhibition), read-out: [3H] Leu → Protein (% Activation ↑ or Inhibition ↓)
[3] = low concentration (panaxytriol 30 μM, Compound D 6 μM), 15 min incubation

Structure (SMILES) | proliferative activity life-span of normal mouse splenocytes in vitro (CD-1 mouse splenocytes) | pIC50 ([1]; 72 h) | Fold of resistance (IC50 ratio CCRF-CEM/TAXOL vs CCRF-CEM) ([1]; Table 3A-2) | fold of cross-resistance (CCRF-CEM/TAXOL vs parent cell line) [1] | effect on protein synthesis (leukemic CCRF CEM cells) | [3H]-AdR → RNA (% Activation ↑ or Inhibition ↓) (leukemic CCRF CEM cells; 100 μM, 60 min, ↓ (inhibition)) | [3H]-dThd → DNA (% Activation ↑ or Inhibition ↓) (leukemic CCRF CEM cells; 100 μM, 60 min, ↓ (inhibition)) | effect on DNA and RNA synthesis (leukemic CCRF CEM cells; 100 μM, 60 min incubation) | inhibition at 100 µM (leukemic CCRF CEM cells; [2]) | effect on DNA and RNA synthesis (leukemic CCRF CEM cells; [3]) | maximal human lymphocyte stimulation concentration (human PBMC lymphocytes) | other results
C=C[C@@H](O)C#CC#CC[C@@H](O)[C@H](O)CCCCCCC [panaxytriol] | prolonged | 5.28 | 0.84 fold | 1.04 fold | inhibitory effects | 74.4 ↓ % | 67.8 ↓ % | inhibitory | 67.8% | activate | 3 µM | stimulation of DNA synthesis ([3H] thymidine uptake) by mouse splenocytes (CD-1 mouse splenocytes): induced stimulation of DNA synthesis; Incorporation of [3H]dThd into Mouse Splenocyte DNA (cpm) (CD-1 mouse splenocytes; 0.03 μM): 227 ± 8.3 cpm; Incorporation of [3H]dThd into Mouse Splenocyte DNA (cpm) (CD-1 mouse splenocytes; 0.1 μM): 251 ± 18 cpm; Incorporation of [3H]dThd into Mouse Splenocyte DNA (cpm) (CD-1 mouse splenocytes; 0.3 μM): 290 ± 20 cpm; Incorporation of [3H]dThd into Mouse Splenocyte DNA (cpm) (CD-1 mouse splenocytes; 1.0 μM): 296 ± 9 cpm; stimulation of DNA synthesis ([3H] thymidine uptake) by mouse splenocytes (CD-1 mouse splenocytes; listed as Panaxytriol): enhance [^3H] thymidine uptake into splenic cells in a dose-dependent manner; IC50 ([1]; 72 h): 3.09 µM; [3H]-AdR → RNA (% Activation ↑ or Inhibition ↓) (leukemic CCRF CEM cells; 30 μM, 15 min, ↑ (activation)): 38.0 ↑ %; [3H]-dThd → DNA (% Activation ↑ or Inhibition ↓) (leukemic CCRF CEM cells; 30 μM, 15 min, ↑ (activation)): 21.3 ↑ %; inhibition at 30 µM (leukemic CCRF CEM cells; Homo sapiens, CCRF-CEM, 30 μM, 15 min, ↓ (inhibition), read-out: [3H] Leu → Protein (% Activation ↑ or Inhibition ↓)): 77.8%
C=C[C@H](O)C#CC#CC[C@H]1OC(C)(C)O[C@@H]1CCCCCCC [Compound (D)] | prolonged | 5.99 | 0.90 fold | 2.17 fold | inhibitory effects | 72.5 ↓ % | 69.5 ↓ % | inhibitory | 69.5% | activate | 0.3 µM | IC50 ([1]; Table 3A-2, CCK-8, 72-hr exposure): 1.02 µM; [3H]-AdR → RNA (% Activation ↑ or Inhibition ↓) (leukemic CCRF CEM cells; 6 μM, 15 min, ↑ (activation)): 35.3 ↑ %; [3H]-dThd → DNA (% Activation ↑ or Inhibition ↓) (leukemic CCRF CEM cells; 6 μM, 15 min, ↑ (activation)): 13.2 ↑ %; inhibition at 6 µM (leukemic CCRF CEM cells; Homo sapiens, CCRF-CEM, 6 μM, 15 min, ↓ (inhibition), read-out: [3H] Leu → Protein (% Activation ↑ or Inhibition ↓)): 45.2%; time of maximal stimulation of lymphocyte (human PBMC lymphocytes): 120 h; potency relative to panaxytriol (concentrations for lymphocyte or splenocyte maximal activation) (human PBMC lymphocytes; FIGS. 8, 9, 10, 11): ≥ 10 fold
